How the values were obtained:
[1] = test system: participants with migraine; assay: Office blood pressure in 12-week double blind randomized 3×3 factorial trial; format: in vivo, human
Protocol: (§1) There was a 4 week screening period and another 4-week post study drug observational period.
There was a 4-week screening period and another 4-week post study drug observational period.
(§2) Group 2 received the low-dose BP lowering combination and simvastatin (i.e., telmisartan 20 mg+amlodipine 2.5 mg+simvastatin). Group 3 received the low-dose BP lowering combination and placebo (i.e., telmisartan 20 mg+amlodipine 2.5 mg+placebo). […] Group 9 received double placebo.
Office BP was measured following the recommendations of the Australian National Heart Foundation. Participants were rested in the seated position for 5 minutes, an appropriate cuff size was selected and 3 measurements of BP were recorded using an Omron HEM907 monitor or equivalent validated automated digital BP monitor. Principles of automated office BP measurements were applied whereby the patient was left alone during BP recording.
(§3) All analyses of study outcomes were conducted according to the principle of intention-to-treat. The analyses of continuous outcomes such SBP and LDL-cholesterol at 12 weeks was performed using ANCOVA including the treatment arm and baseline values as a covariate. Additional analyses included interim measurements in a longitudinal model including treatment arm, visit, and treatment by visit interaction as well as the baseline measurement. Within-patient correlations were modelled using generalized estimating equations. A similar approach was applied to binary endpoints with log-binomial regression used in place of linear regression. There were also pre-defined subgroup analyses, baseline BP, baseline LDL, gender and age.

LDL = LDL laboratory test in the 3×3 factorial trial; format: in vivo, human; conditions: Week 12 v/s Baseline
Protocol: as §1, §2
Change in DBP and SBP • 2. Change in LDL Secondary Outcomes: • 1. Tolerability: • a. […] Difference between groups in participant withdrawals from treatment • 2. Safety: Percentage with any severe adverse event (SAE) • 3. Medication adherence: self-reported measures, pill counts BP Measurement:
Potassium (K+), sodium (Na+), serum creatinine and LDL were measured at screening and at the 12-week end of treatment follow-up visit.
as §3

[2] = test system: participants with migraine; assay: Subject status / participant withdrawals by visit in the 3×3 factorial trial
[3] = Week 12, BP arm versus placebo, interval in brackets
[4] = Week 16 (after 4-week post study drug period)
[5] = Week 16, BP arm versus placebo, interval in brackets
[6] = overall line, BP arm versus placebo, interval in brackets, footnote # not given

How did the “Diastolic Blood Pressure, Change from Baseline, min” value ([1]; Week 12) turn out when `CC(C)NCC(O)COc1cccc2ccccc12` (centres unmarked) [Propranolol, propranolol] was run?
Its value is −22.

And the “Systolic Blood Pressure, Change from Baseline, Mean (SD)” value ([1]; Week 12)?
The value was 10 −10.9 (10.07).

What about the “Systolic Blood Pressure, Change from Baseline, Q1” value ([1]; Week 12) of the same molecule?
Its value is −17.0.

What about the “Systolic Blood Pressure, Change from Baseline, Q2” value ([1]; Week 12) of the same molecule?
The value was −12.8.

And the “Systolic Blood Pressure, Change from Baseline, Q3” value ([1]; Week 12)?
The value was −4.0.

What about the “Systolic Blood Pressure, Change from Baseline, max” value ([1]; Week 12) of the same molecule?
Its value is 5.

And the “Systolic Blood Pressure, Change from Baseline, min” value ([1]; Week 12)?
Its value is −30.

And the “Diastolic Blood Pressure Mean (SD)” value ([1]; Week 12 (end of treatment))?
Its value is 10 74.6 (15.07) mmHg.

And the “Diastolic Blood Pressure Q1” value ([1]; Week 12 (end of treatment))?
The value was 60.7 mmHg.

And the “Diastolic Blood Pressure Q2” value ([1]; Week 12 (end of treatment))?
The value was 70.0 mmHg.

And the “Diastolic Blood Pressure Q3” value ([1]; Week 12 (end of treatment))?
The value was 85.7 mmHg.

What about the “Diastolic Blood Pressure max” value ([1]; Week 12 (end of treatment)) of the same molecule?
The value was 97 mmHg.

And the “Diastolic Blood Pressure min” value ([1]; Week 12 (end of treatment))?
Its value is 54 mmHg.

What about the “Systolic Blood Pressure Mean (SD)” value ([1]; Week 12 (end of treatment)) of the same molecule?
The value was 10 119.5 (17.83) mmHg.

And the “Systolic Blood Pressure Q2” value ([1]; Week 12 (end of treatment))?
Its value is 117.5 mmHg.

And the “Systolic Blood Pressure Q3” value ([1]; Week 12 (end of treatment))?
Its value is 135.3 mmHg.

And the “Systolic Blood Pressure max” value ([1]; Week 12 (end of treatment))?
Its value is 145 mmHg.

What about the “Systolic Blood Pressure min” value ([1]; Week 12 (end of treatment)) of the same molecule?
Its value is 88 mmHg.

What about the “Diastolic Blood Pressure Mean difference” value [1, 3] of the same molecule?
The value was −3.50 (−14.77, 7.77) mmHg.

And the “Systolic Blood Pressure Mean difference” value [1, 3]?
The value was −1.77 (−14.87, 11.34) mmHg.

What about the “Diastolic Blood Pressure, Change from Baseline, Mean difference” value ([1]; Week 12, interval in brackets) of the same molecule?
The value was −7.50 (−13.65, −1.35).

What about the “Systolic Blood Pressure, Change from Baseline, Mean difference” value ([1]; Week 12, interval in brackets) of the same molecule?
The value was −8.40 (−16.80, −0.00).

What about the “Change in DBP from baseline to 12 weeks Mean (SD)” value ([1]; Week 12 v/s Baseline) of the same molecule?
Its value is 10 −10.5 (6.44) mmHg.

And the “Change in DBP from baseline to 12 weeks Q1” value ([1]; Week 12 v/s Baseline)?
Its value is −16.7 mmHg.

And the “Change in DBP from baseline to 12 weeks Q2” value ([1]; Week 12 v/s Baseline)?
Its value is −9.3 mmHg.

And the “Change in DBP from baseline to 12 weeks Q3” value ([1]; Week 12 v/s Baseline)?
The value was −4.3 mmHg.

And the “Change in DBP from baseline to 12 weeks max” value ([1]; Week 12 v/s Baseline)?
The value was −3 mmHg.

And the “Change in DBP from baseline to 12 weeks min” value ([1]; Week 12 v/s Baseline)?
Its value is −22 mmHg.

And the “Change in SBP from baseline to 12 weeks Mean (SD)” value ([1]; Week 12 v/s Baseline)?
The value was 10 −10.9 (10.07) mmHg.

What about the “Change in SBP from baseline to 12 weeks Q1” value ([1]; Week 12 v/s Baseline) of the same molecule?
The value was −17.0 mmHg.

And the “Change in SBP from baseline to 12 weeks Q2” value ([1]; Week 12 v/s Baseline)?
Its value is −12.8 mmHg.

And the “Change in SBP from baseline to 12 weeks Q3” value ([1]; Week 12 v/s Baseline)?
The value was −4.0 mmHg.

And the “Change in SBP from baseline to 12 weeks max” value ([1]; Week 12 v/s Baseline)?
Its value is 5 mmHg.

What about the “Change in SBP from baseline to 12 weeks min” value ([1]; Week 12 v/s Baseline) of the same molecule?
Its value is −30 mmHg.

And the “Diastolic Blood Pressure, Change from Baseline, Mean (SD)” value ([1]; Week 16)?
The value was 9 −3.9 (4.82).

What about the “Diastolic Blood Pressure, Change from Baseline, Q1” value ([1]; Week 16) of the same molecule?
The value was −7.7.

What about the “Diastolic Blood Pressure, Change from Baseline, Q2” value ([1]; Week 16) of the same molecule?
Its value is −2.7.

What about the “Diastolic Blood Pressure, Change from Baseline, Q3” value ([1]; Week 16) of the same molecule?
The value was −0.7.

What about the “Diastolic Blood Pressure, Change from Baseline, max” value ([1]; Week 16) of the same molecule?
The value was 4.

And the “Diastolic Blood Pressure, Change from Baseline, min” value ([1]; Week 16)?
The value was −11.

What about the “Systolic Blood Pressure, Change from Baseline, Mean (SD)” value ([1]; Week 16) of the same molecule?
Its value is 9 −2.3 (5.95).

And the “Systolic Blood Pressure, Change from Baseline, Q1” value ([1]; Week 16)?
The value was −6.3.

And the “Systolic Blood Pressure, Change from Baseline, Q2” value ([1]; Week 16)?
Its value is −3.3.

And the “Systolic Blood Pressure, Change from Baseline, Q3” value ([1]; Week 16)?
The value was 2.3.

And the “Systolic Blood Pressure, Change from Baseline, max” value ([1]; Week 16)?
The value was 6.

What about the “Systolic Blood Pressure, Change from Baseline, min” value ([1]; Week 16) of the same molecule?
Its value is −11.

And the “Diastolic Blood Pressure Mean (SD)” value [1, 4]?
Its value is 9 82.0 (11.14) mmHg.

And the “Diastolic Blood Pressure Q1” value [1, 4]?
The value was 73.3 mmHg.

What about the “Diastolic Blood Pressure Q2” value [1, 4] of the same molecule?
The value was 82.3 mmHg.

What about the “Diastolic Blood Pressure Q3” value [1, 4] of the same molecule?
The value was 87.3 mmHg.

And the “Diastolic Blood Pressure min” value [1, 4]?
The value was 70 mmHg.

And the “Systolic Blood Pressure Mean (SD)” value [1, 4]?
The value was 9 129.6 (15.12) mmHg.

And the “Systolic Blood Pressure Q1” value [1, 4]?
The value was 119.7 mmHg.

And the “Systolic Blood Pressure Q2” value [1, 4]?
The value was 129.3 mmHg.

And the “Systolic Blood Pressure Q3” value [1, 4]?
The value was 136.7 mmHg.

What about the “Systolic Blood Pressure max” value [1, 4] of the same molecule?
The value was 159 mmHg.

And the “Diastolic Blood Pressure Mean difference” value [1, 5]?
Its value is 0.97 (−7.91, 9.85) mmHg.

And the “Systolic Blood Pressure Mean difference” value [1, 5]?
The value was 8.19 (−2.91, 19.28) mmHg.

What about the “Diastolic Blood Pressure, Change from Baseline, Mean difference” value ([1]; Week 16, interval in brackets) of the same molecule?
The value was −3.93 (−9.96, 2.11).

And the “Systolic Blood Pressure, Change from Baseline, Mean difference” value ([1]; Week 16, interval in brackets)?
Its value is 0.10 (−6.97, 7.17).

And the “Diastolic Blood Pressure # Mean difference” value [1, 6]?
The value was −3.57 (−11.29, 4.16) mmHg.

And the “Systolic Blood Pressure # Mean difference” value [1, 6]?
Its value is −1.68 (−12.28, 8.92) mmHg.

And the “Change in LDL from baseline to 12 weeks Mean (SD)” value (LDL)?
Its value is 10 −0.9 (1.03) mmol/l.

What about the “Change in LDL from baseline to 12 weeks Q1” value (LDL) of the same molecule?
Its value is -1.3 mmol/L.

And the “Change in LDL from baseline to 12 weeks Q2” value (LDL)?
Its value is -0.7 mmol/L.

What about the “Change in LDL from baseline to 12 weeks Q3” value (LDL) of the same molecule?
The value was -0.2 mmol/L.

And the “Change in LDL from baseline to 12 weeks max” value (LDL)?
Its value is 0 mmol/L.

And the “Change in LDL from baseline to 12 weeks min” value (LDL)?
Its value is -3 mmol/L.

What about the “Discontinuing: Deceased (percent)” value ([2]; Week 4) of the same molecule?
The value was “(0.0%)”.

And the “Discontinuing: Deceased (percent)” value ([2]; Week 8)?
Its value is “(0.0%)”.

And the “Discontinuing: Deceased (percent)” value ([2]; Week 12)?
Its value is “(0.0%)”.
